Common to all, as to type: cell-based
One test deals with T1, GIP-R (Homo sapiens, UniProt P48546).
T1 sequence (P48546 22-466): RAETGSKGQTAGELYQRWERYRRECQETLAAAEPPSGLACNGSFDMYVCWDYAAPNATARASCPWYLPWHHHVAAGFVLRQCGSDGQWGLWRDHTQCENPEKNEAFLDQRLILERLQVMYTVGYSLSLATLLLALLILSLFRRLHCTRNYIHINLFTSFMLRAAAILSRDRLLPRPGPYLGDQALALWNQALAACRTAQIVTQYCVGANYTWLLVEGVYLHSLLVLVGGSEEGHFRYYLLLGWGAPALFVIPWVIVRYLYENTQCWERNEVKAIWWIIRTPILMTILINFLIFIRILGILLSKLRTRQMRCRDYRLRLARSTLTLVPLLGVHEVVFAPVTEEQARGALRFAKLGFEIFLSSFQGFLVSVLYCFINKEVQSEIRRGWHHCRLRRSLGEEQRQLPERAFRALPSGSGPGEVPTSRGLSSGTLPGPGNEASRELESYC
The test can be described thus: HitHunter cAMP assay (GIP-R). The note with it: cAMP; for EC50: read-out: EC50 GIP-R/nM; for Emax: read-out: (Emax) GIP-R. A digest of the protocol: (§1)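 Suspension cells (10,000/well) in HBSS with 10 mM HEPES, 625 μM IBMX, 0.2% BSA exposed to 22-point 2-fold agonist series in duplicate for 30 min at room temperature. cAMP measured by antibody immunocompetition with overnight development, luminescence read-out.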
In general terms: Changes in cAMP serve as a functional read-out for many G protein-coupled receptors.

Test [1] has as its target T2, GLP-1R (Homo sapiens, UniProt P43220). The experiment in a line: HitHunter cAMP assay (GLP-1R). The note with it: cAMP; for Emax: read-out: (Emax) GLP-1R; for EC50: read-out: EC50 GLP-1R/nM. A digest of the protocol:
as §1

Test [2] addresses T2, GLP-1R. The test can be described thus: PathHunter β-arrestin assay. Conditions: PathHunter β-arrestin assay; read-out: β-arrestin activity EC50. The gist of the method:
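Cells (5,000/well) plated overnight, then exposed to a 22-point 2-fold agonist dilution series in medium with 0.2% BSA for 90 min at 37 °C, 5% CO2. PathHunter detection reagent added; after 3 h at room temperature in the dark, luminescence read.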

Where two headings read alike, the source gives them in different places.

This is an account of results in patent US20260176320A1, “MODULATORS OF G-PROTEIN COUPLED RECEPTORS” (priority 2018, published 2026).

For orientation: Emax means the size of the effect at its maximum, as opposed to the concentration needed.

T2 sequence (P43220 24-463): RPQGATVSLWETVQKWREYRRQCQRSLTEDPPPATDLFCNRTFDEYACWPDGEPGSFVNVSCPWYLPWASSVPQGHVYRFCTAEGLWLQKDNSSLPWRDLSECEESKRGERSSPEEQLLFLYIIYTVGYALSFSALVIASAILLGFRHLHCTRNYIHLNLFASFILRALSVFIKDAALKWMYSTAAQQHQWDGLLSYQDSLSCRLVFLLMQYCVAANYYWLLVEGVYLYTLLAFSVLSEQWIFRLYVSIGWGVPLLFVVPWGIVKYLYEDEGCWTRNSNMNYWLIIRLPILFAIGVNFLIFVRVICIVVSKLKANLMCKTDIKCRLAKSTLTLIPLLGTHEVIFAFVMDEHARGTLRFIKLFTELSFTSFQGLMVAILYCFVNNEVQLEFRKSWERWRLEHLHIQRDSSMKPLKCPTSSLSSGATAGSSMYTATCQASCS

On to `CC[C@H](C)[C@H](NC(=O)[C@H](CO)NC(=O)[C@H](Cc1ccc(O)cc1)NC(=O)[C@H](CC(=O)O)NC(=O)[C@H](CO)NC(=O)[C@@H](NC(=O)[C@H](Cc1ccccc1)NC(=O)[C@@H](NC(=O)CNC(=O)[C@H](CCC(=O)O)NC(=O)CCCCNC(=O)CN1C(=O)CSC1=O)[C@@H](C)O)[C@@H](C)O)C(=O)N[C@@H](Cc1ccc(O)cc1)C(=O)N[C@@H](CC(C)C)C(=O)N[C@@H](CC(=O)O)C(=O)N[C@@H](CCCCN)C(=O)N[C@@H](CCC(N)=O)C(=O)N[C@@H](C)C(=O)N[C@@H](C)C(=O)NC(C)(C)C(=O)N[C@@H](CCC(=O)O)C(=O)N[C@@H](Cc1ccccc1)C(=O)N[C@H](C(=O)N[C@@H](CC(N)=O)C(=O)N[C@@H](Cc1c[nH]c2ccccc12)C(=O)N[C@@H](CC(C)C)C(=O)N[C@@H](CC(C)C)C(=O)N[C@@H](C)C(=O)NCC(=O)NCC(=O)N1CCC[C@H]1C(=O)N[C@@H](CO)C(=O)N[C@@H](CO)C(=O)NCC(=O)N[C@@H](C)C(=O)N1CCC[C@H]1C(=O)N1CCC[C@H]1C(=O)N1CCC[C@H]1C(=O)N[C@@H](CO)C(=O)N[C@@H](CCCCN)C(N)=O)C(C)C` [Compound 177], for which the EC50 was over 1000 nM at GIP-R (Table 3); over 1000 nM at GIP-R (Table 3A); 1 to 10 nM on GLP-1R [1] (Table 3); 1 to 10 nM at GLP-1R [1] (Table 3A); over 1000 nM on GLP-1R [2]. At GIP-R (read-out: (Emax) GIP-R at 1 μM, Table 3, at 1 μM), the Emax at 1 µM came out at 9%. For the same molecule, the Emax on GLP-1R [1] (Table 3) and at GLP-1R [1] (Table 3A) was 96% each time.

As for `CC[C@H](C)[C@H](NC(=O)[C@H](CO)NC(=O)[C@H](Cc1ccc(O)cc1)NC(=O)[C@H](CC(=O)O)NC(=O)[C@H](CO)NC(=O)[C@@H](NC(=O)[C@H](Cc1ccccc1)NC(=O)[C@@H](NC(=O)CNC(=O)[C@H](CCC(=O)O)NC(=O)CCCNC(=O)CN1C(=O)CSC1=O)[C@@H](C)O)[C@@H](C)O)C(=O)N[C@@H](Cc1ccc(O)cc1)C(=O)N[C@@H](CC(C)C)C(=O)N[C@@H](CC(=O)O)C(=O)N[C@@H](CCCCN)C(=O)N[C@@H](CCC(N)=O)C(=O)N[C@@H](C)C(=O)N[C@@H](C)C(=O)NC(C)(C)C(=O)N[C@@H](CCC(=O)O)C(=O)N[C@@H](Cc1ccccc1)C(=O)N[C@H](C(=O)N[C@@H](CC(N)=O)C(=O)N[C@@H](Cc1c[nH]c2ccccc12)C(=O)N[C@@H](CC(C)C)C(=O)N[C@@H](CC(C)C)C(=O)N[C@@H](C)C(=O)NCC(=O)NCC(=O)N1CCC[C@H]1C(=O)N[C@@H](CO)C(=O)N[C@@H](CO)C(=O)NCC(=O)N[C@@H](C)C(=O)N1CCC[C@H]1C(=O)N1CCC[C@H]1C(=O)N1CCC[C@H]1C(=O)N[C@@H](CO)C(=O)N[C@@H](CCCCN)C(N)=O)C(C)C` [Compound 178], the Emax on GIP-R (Table 3) was found to be 38%; on GIP-R (Table 3A), 38%; at GLP-1R [1] (Table 3), 97%; on GLP-1R [1] (Table 3A) it was 97%. Also, the EC50 was 100 to 1000 nM on GIP-R (Table 3); 100 to 1000 nM at GIP-R (Table 3A); 1 to 10 nM on GLP-1R [1] (Table 3); 1 to 10 nM on GLP-1R [1] (Table 3A); over 1000 nM on GLP-1R [2].
